Measurements reported in patent US9469615B2, “Quinoxalines and AZA-quinoxalines as CRTH2 receptor modulators” (Merck Sharp & Dohme Corp., priority 2010, dated 2016).

Target: T1, hCRTH2 (Homo sapiens, UniProt Q9Y5Y4)
T1 construct: expressed in transfected cells; host or cells: HEK (human embryonic kidney) cells expressing hCRTH2; membrane preparation
T1 sequence (Q9Y5Y4 1-395): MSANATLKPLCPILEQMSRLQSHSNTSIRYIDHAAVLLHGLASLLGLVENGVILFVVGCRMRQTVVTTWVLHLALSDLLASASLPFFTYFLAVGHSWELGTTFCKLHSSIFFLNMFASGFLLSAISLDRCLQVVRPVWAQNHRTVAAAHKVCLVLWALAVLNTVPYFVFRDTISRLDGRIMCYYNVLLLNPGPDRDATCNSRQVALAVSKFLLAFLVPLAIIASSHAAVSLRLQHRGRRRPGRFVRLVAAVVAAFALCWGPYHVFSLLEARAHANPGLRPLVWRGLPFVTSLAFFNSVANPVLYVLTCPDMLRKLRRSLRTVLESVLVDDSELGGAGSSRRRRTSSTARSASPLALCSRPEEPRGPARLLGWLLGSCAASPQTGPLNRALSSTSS
Test: Radioligand binding assay ([3H]PGD2 competition, HEK-hCRTH2 membranes)
Settings: [3H]PGD2 competition, Table B
Procedure, shortened: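 Competition binding with 3.0 nM [3H]PGD2 and 8-20 μg HEK-hCRTH2 membrane protein in 50 mM Tris-HCl pH 7.4, 1 mM EDTA, 2 mM MnCl2, 1% Me2SO, 60 min at room temperature. Nonspecific binding defined with 10 μM PGD2; bound radioactivity counted after filtration.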

SMILES	Ki
O=C(O)CCCCc1nc2cc(C(=O)N3CCC4(CC3)CNC(=O)c3ccccc34)ccc2nc1-c1ccccc1 [compound 298, 5-(7-(i-oxo-2,3-dihydro-1H-spiro[isoquinoline-4,4′-piperidin]-1′-ylcarbonyl)-3-phenylquinoxalin-2-yl)pentanoic acid]	2.1 to 20 nM
O=C(O)CCCCc1nc2cc(C(=O)N3CCC4(CC3)NC(=O)Cc3ccccc34)ccc2nc1-c1ccccc1 [compound 299, 5-(7-(3-oxo-3,4-dihydro-2H-spiro[isoquinoline-1,4′-piperidin]-1′-ylcarbonyl)-3-phenylquinoxalin-2-yl)pentanoic acid]	2.1 to 20 nM
O=C(O)CCCCc1nc2cc(C(=O)N3CCC4(CC3)Cc3ccccc3C(=O)N4)ccc2nc1-c1ccccc1 [compound 300, 5-(7-(1-oxo-2,4-dihydro-1H-spiro[isoquinoline-3,4′-piperidin]-1′-ylcarbonyl)-3-phenylquinoxalin-2-yl)pentanoic acid]	2.1 to 20 nM
O=C(O)CCCCc1nc2cc(C(=O)N[C@@H]3CCSc4ccccc43)ccc2nc1-c1ccccc1 [compound 301, (R)-5-(3-phenyl-7-(thiochroman-4-ylcarbamoyl)quinoxalin-2-yl)pentanoic acid]	2.1 to 20 nM
O=C(O)CCCCc1nc2cc(C(=O)N3CCN(Cc4ccccc4)CC3)ccc2nc1-c1ccccc1 [compound 302, 5-(7-(4-benzylpiperazine-1-carbonyl)-3-phenylquinoxalin-2-yl)pentanoic acid]	2.1 to 20 nM
N#Cc1cccnc1N1CCN(C(=O)c2ccc3nc(-c4ccccc4)c(CCCCC(=O)O)nc3c2)CC1 [compound 303, 5-(7-(4-(3-cyanopyridin-2-yl)piperazine-1-carbonyl)-3-phenylquinoxalin-2-yl)pentanoic acid]	2.1 to 20 nM
O=C(O)CCCCc1nc2cc(C(=O)N3CCN(c4c(Cl)cncc4Cl)CC3)ccc2nc1-c1ccccc1 [compound 304, 5-(7-(4-(3,5-dichloropyridin-4-yl)piperazine-1-carbonyl)-3-phenylquinoxalin-2-yl)pentanoic acid]	2.1 to 20 nM
O=C(O)CCCCc1nc2cc(C(=O)N3CCN(c4ccccc4C(F)(F)F)CC3)ccc2nc1-c1ccccc1 [compound 305, 5-(3-phenyl-7-(4-(2-(trifluoromethyl)phenyl)piperazine-1-carbonyl)quinoxalin-2-yl)pentanoic acid]	2.1 to 20 nM
O=C(O)CCCCc1nc2cc(C(=O)N3CCN(c4nccs4)CC3)ccc2nc1-c1ccccc1 [compound 306, 5-(3-phenyl-7-(4-(thiazol-2-yl)piperazine-1-carbonyl)quinoxalin-2-yl)pentanoic acid]	20.1 to 200 nM
O=C(O)CCCCc1nc2cc(C(=O)N3Cc4ccccc4C3)ccc2nc1-c1ccccc1 [compound 307, 5-(7-(isoindoline-2-carbonyl)-3-phenylquinoxalin-2-yl)pentanoic acid]	20.1 to 200 nM
O=C(O)CCCCc1nc2cc(C(=O)N3CCN(c4ccccc4Cl)CC3)ccc2nc1-c1ccccc1 [compound 308, 5-(7-(4-(2-chlorophenyl)piperazine-1-carbonyl)-3-phenylquinoxalin-2-yl)pentanoic acid]	2.1 to 20 nM
O=C(O)CCCCc1nc2cc(C(=O)N3CCN(c4cccc(C(F)(F)F)c4)CC3)ccc2nc1-c1ccccc1 [compound 309, 5-(3-phenyl-7-(4-(3-(trifluoromethyl)phenyl)piperazine-l-carbonyl)quinoxalin-2-yl)pentanoic acid]	2.1 to 20 nM
O=C(O)CCCCc1nc2cc(C(=O)N[C@H]3CCOc4cc(F)ccc43)ccc2nc1-c1ccccc1 [compound 310, (S)-5-(7((7-fluorochroman-4-yl)carbamoyl)-3-phenylquinoxalin-2-yl)pentanoic acid]	2.1 to 20 nM
O=C(O)CCCCc1nc2cc(C(=O)NC3CCCc4cc(OCc5ccccc5)ccc43)ccc2nc1-c1ccc(Cl)cc1 (centres unmarked) [compound 311, 5-(7-((6-(benzyloxy)-1,2,3,4-tetrahydronaphthalen-1-yl)carbamoyl)-3-(4-chlorophenyl)quinoxalin-2-yl)pentanoic acid]	2.1 to 20 nM
COc1ccc2c(c1)CCCC2NC(=O)c1ccc2nc(-c3ccc(Cl)cc3)c(CCCCC(=O)O)nc2c1 (centres unmarked) [compound 312, 5-(3-(4-chlorophenyl)-7((6-methoxy-1,2,3,4-tetrahydronaphthalen-1-yl)carbamoyl)quinoxalin-2-yl)pentanoic acid]	2.1 to 20 nM
O=C(O)CCCCc1nc2cc(C(=O)N[C@H]3COc4cc(F)ccc43)ccc2nc1-c1ccc(Cl)cc1 [compound 313, (R)-5-(3-(4-chlorophenyl)-7-((6-fluoro-2,3-dihydrobenzofuran-3-yl)carbamoyl)quinoxalin-2-yl)pentanoic acid]	2.1 to 20 nM

SMILES	Ki
O=C(O)CCCCc1nc2cc(C(=O)N[C@@H]3COc4cc(F)ccc43)ccc2nc1-c1ccc(Cl)cc1 [compound 314, (S)-5-(3-(4-chlorophenyl)-7-((6-fluoro-2,3-dihydrobenzofuran-3-yl)carbamoyl)quinoxalin-2-yl)pentanoic acid]	2.1 to 20 nM
CN1C(=O)CC(NC(=O)c2ccc3nc(-c4ccc(Cl)cc4)c(CCCCC(=O)O)nc3c2)c2ccccc21 (centres unmarked) [compound 315, 5-(3-(4-chlorophenyl)-7-((1-methyl-2-oxo-1,2,3,4-tetrahydroquinolin-4-yl)carbamoyl)quinoxalin-2-yl)pentanoic acid]	2.1 to 20 nM
O=C(O)CCCCc1nc2cc(C(=O)N3CCC(N4Cc5ccccc5C4=O)CC3)ccc2nc1-c1ccc(Cl)cc1 [compound 316, 5-(3-(4-chlorophenyl)-7-(4-(1-oxoisoindolin-2-yl)piperidine-1-carbonyl)quinoxalin-2-yl)pentanoic acid]	2.1 to 20 nM
O=C(O)CCCCc1nc2cc(C(=O)NCC3(c4ccc(OC(F)(F)F)cc4)CC3)ccc2nc1-c1ccc(Cl)cc1 [compound 317, 5-(3-(4-chlorophenyl)-7-(((1-(4-(trifluoromethoxy)phenyl)cyclopropyl)methyl)carbamoyl)quinoxalin-2-yl)pentanoic acid]	2.1 to 20 nM
O=C(O)CCCCc1nc2cc(C(=O)NCC3(c4ccc(F)cc4)CC3)ccc2nc1-c1ccc(Cl)cc1 [compound 318, 5-(3-(4-chlorophenyl)-7-(((1-(4-fluorophenyl)cyclopropyl)methyl)carbamoyl)quinoxalin-2-yl)pentanoic acid]	2.1 to 20 nM
O=C(O)CCCCc1nc2cc(C(=O)NC3NC(=O)c4ccccc43)ccc2nc1-c1ccc(Cl)cc1 (centres unmarked) [compound 319, 5-(3-(4-chlorophenyl)-7((3-oxoisoindolin-1-yl)carbamoyl)quinoxalin-2-yl)pentanoic acid]	2.1 to 20 nM
O=C(O)CCCCc1nc2cc(C(=O)N[C@@H]3CCS(=O)(=O)c4ccccc43)ccc2nc1-c1ccc(Cl)cc1 [compound 320, (R)-5-(3-(4-chlorophenyl)-7-((1,1-dioxidothiochroman-4-yl)carbamoyl)quinoxalin-2-yl)pentanoic acid]	2.1 to 20 nM
C[C@H](NC(=O)c1ccc2nc(-c3ccc(Cl)cc3)c(CCCCC(=O)O)nc2c1)c1cncc2ccccc12 [compound 321, (S)-5-(3-(4-chlorophenyl)-7-((1-(isoquinolin-4-yl)ethyl)carbamoyl)quinoxalin-2-yl)pentanoic acid]	2.1 to 20 nM
C[C@H](NC(=O)c1ccc2nc(-c3ccc(Cl)cc3)c(CCCCC(=O)O)nc2c1)c1cccc2ncccc12 [compound 322, (S)-5-(3-(4-chlorophenyl)-7-((1-(quinolin-5-yl)ethyl)carbamoyl)quinoxalin-2-yl)pentanoic acid]	2.1 to 20 nM
O=C(O)CCCCc1nc2cc(C(=O)N3CC(OCc4ccccc4)C3)ccc2nc1-c1ccc(Cl)cc1 [compound 323, 5-(7-(3-(benzyloxy)azetidine-1-carbonyl)-3-(4-chlorophenyl)quinoxalin-2-yl)pentanoic acid]	2.1 to 20 nM
O=C(O)CCCCc1nc2cc(C(=O)N3CC(n4cccn4)C3)ccc2nc1-c1ccc(Cl)cc1 [compound 324, 5-(7-(3-(1H-pyrazol-1-yl)azetidine-1-carbonyl)-3-(4-chlorophenyl)quinoxalin-2-yl)pentanoic acid]	2.1 to 20 nM
O=C(O)CCCCc1nc2cc(C(=O)N3CC(n4ccnc4)C3)ccc2nc1-c1ccc(Cl)cc1 [compound 325, 5-(7-(3-(1H-imidazol-1-yl)azetidine-1-carbonyl)-3-(4-chlorophenyl)quinoxalin-2-yl)pentanoic acid]	20.1 to 200 nM
O=C(O)CCCCc1nc2cc(C(=O)N3CC(c4nc(-c5ccncc5)no4)C3)ccc2nc1-c1ccc(Cl)cc1 [compound 326, 5-(3-(4-chlorophenyl)-7-(3-(3-(pyridin-4-yl)-1,2,4-oxadiazol-5-yl)azetidine-1-carbonyl)quinoxalin-2-yl)pentanoic acid]	2.1 to 20 nM
O=C(O)CCCCc1nc2cc(C(=O)N3CC(n4cnnc4)C3)ccc2nc1-c1ccc(Cl)cc1 [compound 327, 5-(7-(3-(4H-1,2,4-triazol-4-yl)azetidine-l-carbonyl)-3-(4-chlorophenyl)quinoxalin-2-yl)pentanoic acid]	20.1 to 200 nM
O=C(O)CCCCc1nc2cc(C(=O)N3CC(F)(c4ccccc4)C3)ccc2nc1-c1ccc(Cl)cc1 [compound 328, 5-(3-(4-chlorophenyl)-7-(3-fluoro-3-phenylazetidine-1-carbonyl)quinoxalin-2-yl)pentanoic acid]	2.1 to 20 nM
O=C(O)CCCCc1nc2cc(C(=O)N3CC(Oc4ccccn4)C3)ccc2nc1-c1ccc(Cl)cc1 [compound 329, 5-(3-(4-chlorophenyl)-7-(3-(pyridin-2-yloxy)azetidine-1-carbonyl)quinoxalin-2-yl)pentanoic acid]	2.1 to 20 nM
